Results on 6 substances are retold here after article PMC11612144, “Deep quantification of substrate turnover defines protease subsite cooperativity” (Molecular Systems Biology, 2024).

No end group written: not given here.

For data set [1], the target named is C. elegans DPF-3 (DPP8/9-orthologue), full-length, recombinant (C. elegans). Put plainly: cryo-EM structure; single particle cryo-EM of full-length DPF-3 alone (apo), ~0.3 mg/ml and 2.5% glycerol, grids blotted at 4 °C; homodimer.
For another data set, the target named is T1, hDPP4 (Homo sapiens, UniProt P27487).
T1 construct: purchased Abcam ab79138
T1 sequence (P27487 whole entry): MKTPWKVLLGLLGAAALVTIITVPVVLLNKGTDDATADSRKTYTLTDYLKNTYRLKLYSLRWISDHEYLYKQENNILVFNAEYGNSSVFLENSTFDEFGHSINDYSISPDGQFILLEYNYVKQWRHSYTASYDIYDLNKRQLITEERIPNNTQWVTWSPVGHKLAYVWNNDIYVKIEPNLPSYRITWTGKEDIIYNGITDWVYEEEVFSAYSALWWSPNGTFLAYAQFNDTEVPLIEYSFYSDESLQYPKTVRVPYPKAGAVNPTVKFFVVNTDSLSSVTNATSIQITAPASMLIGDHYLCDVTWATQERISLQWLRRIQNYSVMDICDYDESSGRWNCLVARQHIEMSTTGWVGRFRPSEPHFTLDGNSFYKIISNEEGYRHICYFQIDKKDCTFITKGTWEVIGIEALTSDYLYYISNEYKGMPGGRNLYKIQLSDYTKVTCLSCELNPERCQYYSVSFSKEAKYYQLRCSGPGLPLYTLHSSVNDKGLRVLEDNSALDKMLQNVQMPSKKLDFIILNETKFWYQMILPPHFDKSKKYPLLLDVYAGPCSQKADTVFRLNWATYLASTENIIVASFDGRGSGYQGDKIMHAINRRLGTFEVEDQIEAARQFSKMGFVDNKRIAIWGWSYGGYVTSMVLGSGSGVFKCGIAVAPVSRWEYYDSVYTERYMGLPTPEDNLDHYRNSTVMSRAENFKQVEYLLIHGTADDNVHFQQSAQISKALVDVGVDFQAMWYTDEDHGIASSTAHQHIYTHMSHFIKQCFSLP
Put plainly: In vitro protease assay by mass spectrometry: cleavage of synthetic GLP-1 N-terminal peptides by hDPP4 over time. It counts as in vitro ADME. The following applies: hDPP4 1 µg in 100 µl, peptide 1 pmol/µl, 21 °C, LC-MS, Fig. 4A; for product formation upon digestion with hDPP4 (in words): 30-120 min, three technical replicates. How it is done: Synthetic peptides representing either wild-type or mutated GLP-1 were purchased from Thermo Fisher Scientific and their cleavage by DPP4 was measured over time. Briefly, the lyophilized peptides were dissolved in TBS buffer supplemented with 2 mM TCEP to obtain a stock solution with a final concentration of 0.1 nmol/µl. 1ug of DPP4 and each peptide at a final concentration of 1 pmol/µl were used in reactions at a final volume of 100 µl. To distinguish the products, the four peptides were pooled into two groups. One group contained GLP-1 wt (HAE ([…])) & GLP-1 H1D, E3P (DAP ([…])) and the other group GLP-1 H1D (DAE ([…])) & GLP-1 E3P (HAP ([…])). The assay was performed at 21 °C, aliquots (20 µl) were taken out at the indicated times and mixed with 180 µl of 0.1% trifluoroacetic acid, 2 mM TCEP, 2% acetonitrile in water to stop the reaction.
The peptides were analyzed by capillary liquid chromatography tandem mass spectrometry (LC-MS) using an Orbitrap Fusion LUMOS, a VanquishNeo-nLC, and a 75umx15cm EasyC18 column kept at 45 °C and mounted on a easy source (Thermo Fisher Scientific). Peptides were loaded on a 0.3 × 5 mm C18 trap using a back flash method for elution. Peptides were separated with a gradient of 0–0.2 min 2–6%B in A, 0.2–4.2 min 6–21%, 4.2–6.2 min 21–30%, 6.2–6.7 min 30–36%, 6.7–7.2 min 36–45%, 7.2–7.5 min 45%-100%, 7.5-12 min 100%. A: 0.1% FA in H2O; B: 0.1% FA, 80% MeCN in H2O, at room temperature and the flow rate during the gradient was 200 nl/min and for the last 4.4 min 350 nl/min. The data were acquired using 120,000 resolution for the peptide measurements in the Orbitrap and a top T (1.5 s) method with HCD fragmentation for each precursor and fragment measurement in the ion trap following the manufacturer guidelines (Thermo Scientific).

Another data set deals with GLP-1 receptor. As to conditions: compared with GLP-1(7-37); ref Mentlein et al, 1993; Muller et al, 2019; cited from earlier work. The text has this:
To achieve clinical utility, GLP ...

Turning to “C. elegans DPF-3 (DPP8/9-orthologue), full-length, recombinant (enzyme)”, the stoichiometry N – broadly, a count of units in the complex or per binding partner – in data set [1] was 2.
For DAEGTFTSDVSR [DAE], the “product formation upon digestion with hDPP4 (in words)” value (shortened to “product formation upon digestion”) on hDPP4 is “greatly decreased product levels at all time points and continued product accumulation over 120 min”.
Turning to DAPGTFTSDVSR [DAP], the “product formation upon digestion” value at hDPP4 is recorded as “completely abrogated product formation”.
Regarding “GLP-1(9-37): DPP4-processed GLP-1 peptide (EGTFTSDVSSYLEGQAAKEFIAWLVKGRG; Glucagon-like peptide 1; UniProt P01275 100-128, looked up, fragment)”, the “affinity to its receptor (in words)” value in the data set with GLP-1 receptor is “reduced affinity”.
Take HAEGTFTSDVSR [HAE, reference compound]: on hDPP4, the “time within which product formation was essentially complete” value is given as at most 30 min.
Regarding HAPGTFTSDVSR [HAP], the “product formation upon digestion” value at hDPP4 is reported as “completely abrogated product formation”.
